For 24 compounds, IC50 and DC50 results are on record in patent US20250051347A1, “BIFUNCTIONAL CHIMERIC HETEROCYCLIC COMPOUND AND USE THEREOF AS ANDROGEN RECEPTOR DEGRADER” (Hinova Pharmaceuticals, Inc., priority 2021, published 2025).

One test deals with 22RV1 cells. Particulars: Homo sapiens, 22Rv1, 144 h, read-out: 22RV1 IC50 (nM), 22RV1 cells, 6 days culture, CCK-8, OD 450 nm.
Test [1] addresses T1, androgen receptor (AR) splicing variant AR-v7 (Homo sapiens, UniProt P10275).
T1 construct: The degradation activity of compounds on AR-v7 in 22RV1 cells; host or cells: 22RV1 cells
T1 sequence (P10275 1-644 isoform P10275-3): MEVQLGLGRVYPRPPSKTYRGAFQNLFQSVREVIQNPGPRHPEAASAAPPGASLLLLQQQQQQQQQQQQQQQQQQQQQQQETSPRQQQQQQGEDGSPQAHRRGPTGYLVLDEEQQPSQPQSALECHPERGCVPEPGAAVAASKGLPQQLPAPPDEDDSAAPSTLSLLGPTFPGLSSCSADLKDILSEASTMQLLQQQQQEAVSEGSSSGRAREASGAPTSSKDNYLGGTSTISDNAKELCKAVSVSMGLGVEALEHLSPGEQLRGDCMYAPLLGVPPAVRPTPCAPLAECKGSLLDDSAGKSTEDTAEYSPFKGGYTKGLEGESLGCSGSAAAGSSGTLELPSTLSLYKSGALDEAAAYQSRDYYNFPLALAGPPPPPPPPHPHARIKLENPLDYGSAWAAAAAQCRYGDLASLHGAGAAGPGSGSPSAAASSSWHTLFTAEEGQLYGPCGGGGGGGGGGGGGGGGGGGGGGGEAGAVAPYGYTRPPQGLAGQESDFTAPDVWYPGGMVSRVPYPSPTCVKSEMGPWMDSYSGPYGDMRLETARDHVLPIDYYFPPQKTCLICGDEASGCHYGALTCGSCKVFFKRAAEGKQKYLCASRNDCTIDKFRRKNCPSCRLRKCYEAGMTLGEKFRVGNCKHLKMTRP
In words: Degradation activity on androgen receptor splicing variant AR-v7 in 22RV1 cells (ELISA). It counts as cell-based. To be noted: AR-v7 degradation in 22RV1 cells, 48 h, class symbols. On the technique in general: An ELISA detects its analyte on a solid surface through an enzyme-linked reagent.

On to `CC(C)(c1ccc(Oc2cccc(-n3nccn3)n2)cc1)c1ccc(O[C@H]2C[C@H](Nc3ccc4c(c3)C(=O)N(C3CCC(=O)NC3=O)C4=O)C2)cc1` (stereo partly drawn) [Example 256, 5-((1r,3r)-3-(4-(2-(4-((6-(2H-1,2,3-triazol-2-yl)pyridin-2-yl)oxy)phenyl)propan-2-ylphenoxy)cyclobutyl)amino)-2-(2,6-dioxopiperidin-3-yl)isoindolin-1,3-dione], for which the IC50 in the test on 22RV1 cells is 2 nM. Further, in test [1], the DC50 is under 10 nM.
On to `CC(C)(c1ccc(Oc2ccc(N3CC(N4CC(F)C4)C3)nn2)cc1)c1ccc(O[C@H]2C[C@H](Nc3ccc4c(c3)C(=O)N(C3CCC(=O)NC3=O)C4=O)C2)cc1` (stereo partly drawn) [Example 258], for which the IC50 in the test with 22RV1 cells was 8 nM. Besides, the DC50 in test [1] lay in the range of 101 to 1000 nM.
Consider `CC(C)(c1ccc(Oc2cnc(C(N)=O)nc2)cc1)c1ccc(O[C@H]2C[C@H](Nc3ccc4c(c3)C(=O)N(C3CCC(=O)NC3=O)C4=O)C2)cc1` (stereo partly drawn) [Example 265, 5-(4-(2-(4-((1r,3r)-3-((2-(2,6-dioxopiperidin-3-yl)-1,3-dioxoisoindolin-5-yl)amino)cyclobutyloxy)phenyl)propan-2-yl)phenoxy)pyrimidin-2-carbonylamine], for which the IC50 in the test with 22RV1 cells was 4 nM. Moreover, the DC50 in test [1] was under 10 nM.
In the case of `Cn1cc(-c2nccc(COc3ccc(C(C)(C)c4ccc(O[C@H]5C[C@@H](Nc6ccc7c(c6)C(=O)N(C6CCC(=O)NC6=O)C7=O)C5)cc4)cc3)n2)cn1` (stereo partly drawn) [Example 270], the IC50 in the test with 22RV1 cells amounted to 10 nM. For the same compound, the DC50 in test [1] was under 10 nM.
With `CC(C)(c1ccc(OCc2ccnc(-c3cn[nH]c3)n2)cc1)c1ccc(O[C@H]2C[C@@H](Nc3ccc4c(c3)C(=O)N(C3CCC(=O)NC3=O)C4=O)C2)cc1` (stereo partly drawn) [Example 273], the IC50 with 22RV1 cells was 10 nM. Further, in test [1], the DC50 was under 10 nM.
As for `CC(C)(c1ccc(OCc2ccnc(-c3ncon3)n2)cc1)c1ccc(O[C@H]2C[C@@H](Nc3ccc4c(c3)C(=O)N(C3CCC(=O)NC3=O)C4=O)C2)cc1` (stereo partly drawn) [Example 276], the IC50 in the test with 22RV1 cells was determined as 6 nM. Also, in test [1], the DC50 is under 10 nM.
Take `CC(C)(c1ccc(OCc2ccnc(C#N)n2)cc1)c1ccc(O[C@H]2C[C@@H](Nc3ccc4c(c3)C(=O)N(C3CCC(=O)NC3=O)C4=O)C2)cc1` (stereo partly drawn) [Example 277, 4-((4-(2-(4-((1s,3s)-3-((2-(2,6-dioxopiperidin-3-yl)-1,3-dioxoisoindolin-5-yl)amino)cyclobutyloxy)phenyl)propan-2-yl)phenoxy)methyl)pyrimidin-2-carbonitrile]: the IC50 in the test on 22RV1 cells was found to be 5 nM. The compound further registered a DC50 in test [1] of under 10 nM.
For `Cc1nc(-c2nccc(COc3ccc(C(C)(C)c4ccc(O[C@H]5C[C@@H](Nc6ccc7c(c6)C(=O)N(C6CCC(=O)NC6=O)C7=O)C5)cc4)cc3)n2)no1` (stereo partly drawn) [Example 278], in the test with 22RV1 cells, the IC50 amounted to 6 nM. In test [1], this compound gave a DC50 of under 10 nM.
In the same order, the values of `CC(Oc1ccc(C(C)(C)c2ccc(O[C@H]3C[C@H](Nc4ccc5c(c4)C(=O)N(C4CCC(=O)NC4=O)C5=O)C3)cc2)cc1)c1ncnc(N2CC3(COC3)C2)c1F` (stereo partly drawn) [Example 280] are 7 nM and under 10 nM.
Turning to `CC(C)(c1ccc(OCc2ccnc(-c3ncon3)n2)cc1)c1ccc(O[C@H]2C[C@H](Nc3ccc4c(c3)C(=O)N(C3CCC(=O)NC3=O)C4=O)C2)cc1` (stereo partly drawn) [Example 281], the IC50 in the test on 22RV1 cells was 5 nM. The same compound yielded a DC50 in test [1] of under 10 nM.
Take `Cc1nc(-c2nccc(Oc3ccc(C(C)(C)c4ccc(O[C@H]5C[C@H](Nc6ccc7c(c6)C(=O)N(C6CCC(=O)NC6=O)C7=O)C5)cc4)cc3)n2)no1` (stereo partly drawn) [Example 288]: the 50% inhibitory concentration (IC50) in the test with 22RV1 cells amounted to 4 nM. Also, in test [1], the DC50 is under 10 nM.
With `Cc1nnc(-c2nccc(Oc3ccc(C(C)(C)c4ccc(O[C@H]5C[C@H](Nc6ccc7c(c6)C(=O)N(C6CCC(=O)NC6=O)C7=O)C5)cc4)cc3)n2)o1` (stereo partly drawn) [Example 289], the IC50 with 22RV1 cells was 7 nM. The DC50 in test [1] is under 10 nM.
Consider `CC(C)C(O)c1ncc(Oc2ccc(C(C)(C)c3ccc(O[C@H]4C[C@H](Nc5ccc6c(c5)C(=O)N(C5CCC(=O)NC5=O)C6=O)C4)cc3)cc2)cn1` (stereo partly drawn) [Example 290], for which the IC50 with 22RV1 cells was 7 nM. The DC50 in test [1] was under 10 nM.
Consider `CC(C)C(=O)c1ncc(Oc2ccc(C(C)(C)c3ccc(O[C@H]4C[C@H](Nc5ccc6c(c5)C(=O)N(C5CCC(=O)NC5=O)C6=O)C4)cc3)cc2)cn1` (stereo partly drawn) [Example 291], for which the IC50 in the test on 22RV1 cells was 16 nM. This compound also gave a DC50 in test [1] of under 10 nM.
For `Cc1nc(-c2ncc(Oc3ccc(C4(c5ccc(O[C@H]6C[C@H](Nc7ccc8c(c7)C(=O)N(C7CCC(=O)NC7=O)C8=O)C6)cc5)CCCC4)cc3)cn2)no1` (stereo partly drawn) [Example 293], the IC50 with 22RV1 cells came to 2.5 nM. The DC50 in test [1] was under 10 nM.
With `CCC(CC)(c1ccc(Oc2cnc(C(C)=O)cn2)cc1)c1ccc(O[C@H]2C[C@H](Nc3ccc4c(c3)C(=O)N(C3CCC(=O)NC3=O)C4=O)C2)cc1` (stereo partly drawn) [Example 294], the IC50 in the test on 22RV1 cells is 4.2 nM. The compound also gave a DC50 in test [1] of under 10 nM.
In the case of `CCC(CC)(c1ccc(Oc2cnc(C(C)O)cn2)cc1)c1ccc(O[C@H]2C[C@@H](Nc3ccc4c(c3)C(=O)N(C3CCC(=O)NC3=O)C4=O)C2)cc1` (stereo partly drawn) [Example 295], the IC50 in the test with 22RV1 cells was 11 nM. Also, the DC50 in test [1] is under 10 nM.
`CCC(CC)(c1ccc(Oc2cnc(C(C)=O)cn2)cc1)c1ccc(O[C@H]2C[C@@H](Nc3ccc4c(c3)C(=O)N(C3CCC(=O)NC3=O)C4=O)C2)cc1` (stereo partly drawn) [Example 296]: the IC50 with 22RV1 cells was found to be 7 nM. The compound also yielded a DC50 in test [1] of under 10 nM.
Regarding `CC(=O)c1nccc(COc2ccc(C(C)(C)c3ccc(OC[C@H](CCCl)Nc4ccc5c(c4)C(=O)N(C4CCC(=O)NC4=O)C5=O)cc3)cc2)n1` (stereo partly drawn) [Example 306], in the test with 22RV1 cells, the IC50 came to 13 nM. The compound further yielded a DC50 in test [1] of under 10 nM.
Taken in the same sequence, the figures for `CC(=O)c1nccc(COc2ccc(C(C)(C)c3ccc(OC[C@@H]4CCN4c4ccc5c(c4)C(=O)N(C4CCC(=O)NC4=O)C5=O)cc3)cc2)n1` (stereo partly drawn) [Example 308, 5-((S)-2-((4-(2-(4-((2-acetylpyrimidin-4-yl)methoxy)phenyl)propan-2-yl)phenoxy)methyl)azetidin-1-yl)-2-(2,6-dioxopiperidin-3-yl)isoindolin-1,3-dione] were 19 nM and 11 to 100 nM.
`CC(C)(c1ccc(Oc2ncc(N3CC4(COC4)C3)cn2)cc1)c1ccc(O[C@H]2C[C@H](Nc3ccc4c(c3)C(=O)N(C3CCC(=O)NC3=O)C4=O)C2)cc1` (stereo partly drawn) [Example 311]: the IC50 in the test on 22RV1 cells was determined as 18 nM. In test [1], this compound showed a DC50 of under 10 nM.
Regarding `Cc1noc(-c2ccc(Oc3ccc(C(C)(C)c4ccc(O[C@H]5C[C@H](Nc6ccc7c(c6)C(=O)N(C6CCC(=O)NC6=O)C7=O)C5)cc4)cc3)nn2)n1` (stereo partly drawn) [Example 331], the IC50 with 22RV1 cells was determined as 18 nM. Also, in test [1], the DC50 is under 10 nM.
Taken in the same sequence, the figures for `CC(C)(c1ccc(Oc2cccnn2)cc1)c1ccc(O[C@H]2C[C@H](Nc3ccc4c(c3)C(=O)N(C3CCC(=O)NC3=O)C4=O)C2)cc1` (stereo partly drawn) [Example 333, 2-(2,6-dioxopiperidin-3-yl)-5-((1r,3r)-3-(4-(2-(4-(pyridazine-3-oxy)phenyl)propan-2-yl)phenoxy)cyclobutyl)aminoisoindolin-1,3-dione] were 3 nM and under 10 nM.
Take `Cc1nc(-c2ncc(Oc3ccc(C4(c5ccc(O[C@H]6C[C@H](Nc7ccc8c(c7)C(=O)N(C7CCC(=O)NC7=O)C8=O)C6)cc5)CCCCC4)cc3)cn2)no1` (stereo partly drawn) [Example 339]: in the test with 22RV1 cells, the IC50 came to 2 nM. The compound also had a DC50 in test [1] of under 10 nM.

A word on the IC50: it is the midpoint of a concentration-inhibition curve. Usually DC50 stands for the concentration at which degradation of the target reaches its halfway point. A high value points to a less potent degrader.
